The source of these data is ChEMBL document CHEMBL1134967, “Identification of novel inhibitors of fibroblast growth factor (FGF-2) binding to heparin and endothelial cell survival from a structurally diverse carbohybrid library” (Bioorg Med Chem Lett, 2002).

For test [1], the target named is T1, Fibroblast growth factor 2 (Homo sapiens, UniProt P09038). Description: Inhibition of Fibroblast growth factor 2 binding to heparin-albumin in ELISA. (In general: ELISA stands for enzyme-linked immunosorbent assay.)
T1 sequence (P09038 143-288 limits assumed): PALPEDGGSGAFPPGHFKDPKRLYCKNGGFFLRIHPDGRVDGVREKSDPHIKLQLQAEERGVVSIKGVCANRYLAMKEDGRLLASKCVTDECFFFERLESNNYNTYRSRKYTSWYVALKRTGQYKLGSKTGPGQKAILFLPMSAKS
Test [2] concerns the target T1, Fibroblast growth factor 2. Description: 25% inhibition of FGF-2 binding to heparin-albumin by ELISA.
The target of test [3] is T1, Fibroblast growth factor 2. The test can be described thus: 24% inhibition of FGF-2 binding to heparin-albumin by ELISA.
For test [4], the target named is T1, Fibroblast growth factor 2. The test can be described thus: 23% inhibition of FGF-2 binding to heparin-albumin by ELISA.

Values joined by “and” are separate entries in the source; they are usually repeats but may differ in a detail not shown here. Identical values can stand only once.

A word on the IC50: it is the concentration needed to halve the response being measured. In the case of `O=C(O)[C@@H]1O[C@@H](OCCN2C(=O)CCC2=O)[C@@H](O)[C@@H](O)[C@@H]1O`, the Imax in test [1] was determined as 25%. The IC50 in test [2] is < 313 nM and 340 nM.
Regarding `O=C(COc1ccc(Cl)cc1Cl)NC1OC(C(=O)O)C(O)C(O)C1O` (stereo not given), in test [1], the Imax was 24%. The compound also gave a 50% inhibitory concentration (IC50) in test [3] of 25.2 nM.
For the compound `O=C(NC1OC(C(=O)O)C(O)C(O)C1O)c1ccncc1` (stereo not given), the Imax in test [1] amounted to 45%.
Take `COc1cc(C(=O)NC2OC(C(=O)O)C(O)C(O)C2O)cc(OC)c1OC` (stereo not given): in test [1], the Imax worked out at 23%. In test [4], the half-inhibitory concentration (IC50) is 150 nM.
`O=C(NC1OC(C(=O)O)C(O)C(O)C1O)c1cccs1` (stereo not given) came in with an Imax in test [1] of 40%.
For the compound `O=C(NC1OC(C(=O)O)C(O)C(O)C1O)c1ccc(F)c(F)c1` (stereo not given), the Imax in test [1] was found to be 39%. In addition, the half-inhibitory concentration (IC50) in test [2] is 33000 nM.
